Like-named read-outs stand apart in the source and are kept apart here.
Key:
[1] = target: mTOR (Homo sapiens, UniProt P42345); test: in vitro mTOR inhibition assay (selectivity); format: biochemical; conditions: Table 4
Description: (§1) The in vitro inhibition assays of all final compounds against PI3K were performed by Shanghai ChemPartner Co., Ltd. (China). The antiproliferative activities of the compounds against A2780, U87MG, MCF7, and DU145 cell lines were tested by the standard MTT method. CHO cells stably expressing the transcript of hERG were investigated by the automated whole-cell patch clamp technique, using the QPatch system (Sophion). The compound was tested with Salmonella typhimurium strains TA98 and TA100 with the plate incorporation method at seven doses. Apoptosis was evaluated using the One-Step TUNEL Apoptosis Assay Kit (FITC) (cat. no. MA0223; Meilunbio, Dalian, China), according to the manufacturer’s protocol. Male and female SD rats (SLRC Laboratory Animal Inc., Shanghai, China) were used, and the detailed pharmacokinetic procedures are described in Supplementary Material.

[2] = target: PI3Kδ (Homo sapiens, UniProt O00329); test: in vitro PI3Kδ inhibition assay (isoform selectivity); format: biochemical; conditions: Table 4
Description: as §1

[3] = target: T1, hERG (Homo sapiens, UniProt Q12809); test: hERG automated whole-cell patch clamp (QPatch), CHO cells; format: cell-based; conditions: human, CHO cells stably expressing hERG; CHO cells expressing hERG, patch clamp; read-out: IC50 on hERG potassium currents
T1 construct: expressed in transfected cells
Description: as §1
(§2) To evaluate cardiotoxicity, it is necessary to test inhibitory activity on hERG potassium currents.

[4] = target: T2, hERG potassium currents (Homo sapiens, UniProt Q12809); test: as above; format: cell-based; conditions: in words
T2 construct: expressed in transfected cells
Description: as §1, §2

[5] = system: U87MG cells; test: MTT antiproliferative assay, U87MG; format: cell-based; conditions: Homo sapiens, U-87 MG
Description: as §1

[6] = system: Salmonella typhimurium TA100; test: Ames test, plate incorporation, TA100; format: cell-based
Description: as §1
(§3) S. typhimurium TA98 and TA100 were selected to conduct the Ames experiment to investigate the genotoxicity risk of compound 17p.

[7] = system: Salmonella typhimurium TA98; test: Ames test, plate incorporation, TA98; format: cell-based
Description: as §1, §3

[8] = system: HL-7702 cells; test: inhibitory activity on normal cells, HL-7702; format: cell-based; conditions: Homo sapiens, L02
Source text: (§4) Several clinical PI3K candidates were severely intolerable to patients due to fatal hepatotoxicity and, thus, failed in clinical trials. Thus, evaluating the selectivity of compounds toward normal cells might reduce the risk of clinical failure of new compounds.

[9] = system: DU145 cells; test: MTT antiproliferative assay, DU145; format: cell-based; conditions: Homo sapiens, DU-145
Description: as §1

[10] = pharmacokinetics in SD rats; format: in vivo; parameters: area under the curve: unit not given here; conditions: for AUC(0-t) / Cmax / half-life / Tmax / bioavailability: rat, plasma; for bioavailability: read-out: F (oral bioavailability)
Description: as §1
According to the good in vitro properties of compound 17p, we performed pharmacokinetic analyses in male and female SD rats at doses of 10 (po) and 2.5 mg/kg (iv), respectively (Table 9). The pharmacokinetic properties in male and female SD rats were […]. […] Thus, compound 17p had favorable pharmacokinetic properties.

[11] = system: MRC-5 cells; test: inhibitory activity on normal cells, MRC-5; format: cell-based; conditions: Homo sapiens, MRC5
Source text: as §4

[12] = system: MCF7 cells; test: MTT antiproliferative assay, MCF7; format: cell-based; conditions: Homo sapiens
Description: as §1

[13] = target: PI3Kγ (Homo sapiens, UniProt P48736); test: in vitro PI3Kγ inhibition assay (isoform selectivity); format: biochemical; conditions: Table 4
Description: as §1

[14] = liver microsome stability, human; format: in vitro ADME; conditions: liver microsomes
Description: (§5) The metabolic stability of 17p was evaluated in liver microsome assays, which measure clearance and half-life in rats and humans.

[15] = target: PI3Kβ (Homo sapiens, UniProt P42338); test: in vitro PI3Kβ inhibition assay (isoform selectivity); format: biochemical; conditions: Table 4
Description: as §1

[16] = system: A2780 cells; test: TUNEL apoptosis assay in A2780; format: cell-based; conditions: 24 h treatment
Description: as §1
The ED50 value of 17p cytotoxicity was determined using a multiple logistic regression model.

[17] = target: PI3Kα (Homo sapiens, UniProt P42336); test: in vitro PI3Kα kinase inhibition assay; format: biochemical
Description: as §1

[18] = liver microsome stability, rat; format: in vitro ADME; conditions: liver microsomes
Description: as §5

[19] = system: A2780 cells; test: MTT antiproliferative assay, A2780; format: cell-based; conditions: Homo sapiens
Description: as §1

[20] = read-out: T1/2 liver microsomes

Sequence of PI3Kα (P42336 whole entry): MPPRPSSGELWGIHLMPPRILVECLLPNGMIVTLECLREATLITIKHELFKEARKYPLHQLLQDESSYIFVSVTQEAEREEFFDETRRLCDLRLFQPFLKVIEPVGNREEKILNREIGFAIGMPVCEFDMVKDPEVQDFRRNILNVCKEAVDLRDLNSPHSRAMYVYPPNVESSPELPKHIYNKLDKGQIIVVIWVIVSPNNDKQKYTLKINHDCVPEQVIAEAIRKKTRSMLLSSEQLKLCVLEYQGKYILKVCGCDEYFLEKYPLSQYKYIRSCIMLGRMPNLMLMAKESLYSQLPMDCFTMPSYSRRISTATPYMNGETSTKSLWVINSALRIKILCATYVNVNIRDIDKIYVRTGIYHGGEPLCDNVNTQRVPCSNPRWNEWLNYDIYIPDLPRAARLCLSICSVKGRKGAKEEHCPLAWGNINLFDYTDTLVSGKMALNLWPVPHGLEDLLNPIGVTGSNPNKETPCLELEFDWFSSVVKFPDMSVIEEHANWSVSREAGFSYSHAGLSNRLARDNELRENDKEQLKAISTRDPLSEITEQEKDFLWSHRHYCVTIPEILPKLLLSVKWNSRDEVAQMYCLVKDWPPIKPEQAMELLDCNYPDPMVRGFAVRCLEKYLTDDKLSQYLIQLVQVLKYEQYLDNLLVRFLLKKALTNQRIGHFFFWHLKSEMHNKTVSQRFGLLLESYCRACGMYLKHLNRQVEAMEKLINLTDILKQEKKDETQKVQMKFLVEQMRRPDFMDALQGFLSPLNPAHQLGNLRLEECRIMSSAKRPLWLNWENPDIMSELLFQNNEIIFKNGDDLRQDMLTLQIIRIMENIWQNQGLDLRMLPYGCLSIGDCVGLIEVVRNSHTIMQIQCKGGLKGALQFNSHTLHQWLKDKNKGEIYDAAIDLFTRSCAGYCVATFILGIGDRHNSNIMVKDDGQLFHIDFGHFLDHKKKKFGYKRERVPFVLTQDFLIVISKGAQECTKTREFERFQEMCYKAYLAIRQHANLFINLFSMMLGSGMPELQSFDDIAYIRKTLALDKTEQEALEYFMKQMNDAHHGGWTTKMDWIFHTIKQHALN
Sequence of PI3Kα (P27986 whole entry partner): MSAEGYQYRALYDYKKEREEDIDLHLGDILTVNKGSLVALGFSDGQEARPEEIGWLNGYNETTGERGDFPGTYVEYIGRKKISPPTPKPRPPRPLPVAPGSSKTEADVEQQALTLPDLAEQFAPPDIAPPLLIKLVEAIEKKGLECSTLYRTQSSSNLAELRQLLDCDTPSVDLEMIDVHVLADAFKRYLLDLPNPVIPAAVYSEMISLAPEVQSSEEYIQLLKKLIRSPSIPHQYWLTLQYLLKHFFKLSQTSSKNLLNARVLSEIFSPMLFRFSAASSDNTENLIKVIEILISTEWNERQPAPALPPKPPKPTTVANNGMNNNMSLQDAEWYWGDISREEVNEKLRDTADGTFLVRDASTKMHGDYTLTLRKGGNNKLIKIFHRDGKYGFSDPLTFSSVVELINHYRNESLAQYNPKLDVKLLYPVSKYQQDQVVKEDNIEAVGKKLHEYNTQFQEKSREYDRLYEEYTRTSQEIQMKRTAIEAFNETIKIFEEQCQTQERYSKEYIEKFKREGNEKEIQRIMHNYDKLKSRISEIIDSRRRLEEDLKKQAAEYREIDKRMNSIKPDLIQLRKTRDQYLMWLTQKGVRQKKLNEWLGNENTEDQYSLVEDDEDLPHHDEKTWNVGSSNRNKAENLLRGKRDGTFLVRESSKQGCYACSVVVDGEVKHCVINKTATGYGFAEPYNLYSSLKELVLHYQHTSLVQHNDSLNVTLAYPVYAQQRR
Sequence of PI3Kγ (P48736 whole entry, canonical isoform): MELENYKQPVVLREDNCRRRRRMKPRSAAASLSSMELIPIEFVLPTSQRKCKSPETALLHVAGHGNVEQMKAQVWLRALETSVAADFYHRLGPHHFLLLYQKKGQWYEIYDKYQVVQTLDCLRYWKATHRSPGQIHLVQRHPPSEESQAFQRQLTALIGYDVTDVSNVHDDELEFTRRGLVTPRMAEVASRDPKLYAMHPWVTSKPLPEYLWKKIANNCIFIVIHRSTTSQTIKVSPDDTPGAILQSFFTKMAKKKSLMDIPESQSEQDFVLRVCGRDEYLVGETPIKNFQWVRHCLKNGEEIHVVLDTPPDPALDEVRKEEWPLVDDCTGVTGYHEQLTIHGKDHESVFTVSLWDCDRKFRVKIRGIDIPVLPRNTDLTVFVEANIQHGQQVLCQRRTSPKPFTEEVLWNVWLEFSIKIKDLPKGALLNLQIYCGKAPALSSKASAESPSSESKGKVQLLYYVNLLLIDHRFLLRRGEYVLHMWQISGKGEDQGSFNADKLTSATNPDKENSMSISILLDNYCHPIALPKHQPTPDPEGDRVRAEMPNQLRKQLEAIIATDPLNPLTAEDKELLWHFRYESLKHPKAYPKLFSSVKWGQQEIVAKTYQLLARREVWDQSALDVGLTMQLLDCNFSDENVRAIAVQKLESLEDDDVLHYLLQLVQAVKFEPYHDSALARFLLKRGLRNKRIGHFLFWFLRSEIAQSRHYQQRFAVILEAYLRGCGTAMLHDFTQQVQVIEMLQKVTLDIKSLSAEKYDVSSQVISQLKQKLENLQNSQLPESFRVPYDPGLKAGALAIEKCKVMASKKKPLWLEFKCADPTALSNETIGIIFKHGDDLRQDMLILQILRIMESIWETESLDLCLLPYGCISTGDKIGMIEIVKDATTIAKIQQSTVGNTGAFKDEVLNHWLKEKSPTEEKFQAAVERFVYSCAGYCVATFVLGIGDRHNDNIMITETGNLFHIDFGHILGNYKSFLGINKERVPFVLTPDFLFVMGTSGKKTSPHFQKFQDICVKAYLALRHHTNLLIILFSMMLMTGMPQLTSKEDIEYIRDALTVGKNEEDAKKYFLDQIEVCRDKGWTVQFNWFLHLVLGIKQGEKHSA
T2 sequence (Q12809 whole entry): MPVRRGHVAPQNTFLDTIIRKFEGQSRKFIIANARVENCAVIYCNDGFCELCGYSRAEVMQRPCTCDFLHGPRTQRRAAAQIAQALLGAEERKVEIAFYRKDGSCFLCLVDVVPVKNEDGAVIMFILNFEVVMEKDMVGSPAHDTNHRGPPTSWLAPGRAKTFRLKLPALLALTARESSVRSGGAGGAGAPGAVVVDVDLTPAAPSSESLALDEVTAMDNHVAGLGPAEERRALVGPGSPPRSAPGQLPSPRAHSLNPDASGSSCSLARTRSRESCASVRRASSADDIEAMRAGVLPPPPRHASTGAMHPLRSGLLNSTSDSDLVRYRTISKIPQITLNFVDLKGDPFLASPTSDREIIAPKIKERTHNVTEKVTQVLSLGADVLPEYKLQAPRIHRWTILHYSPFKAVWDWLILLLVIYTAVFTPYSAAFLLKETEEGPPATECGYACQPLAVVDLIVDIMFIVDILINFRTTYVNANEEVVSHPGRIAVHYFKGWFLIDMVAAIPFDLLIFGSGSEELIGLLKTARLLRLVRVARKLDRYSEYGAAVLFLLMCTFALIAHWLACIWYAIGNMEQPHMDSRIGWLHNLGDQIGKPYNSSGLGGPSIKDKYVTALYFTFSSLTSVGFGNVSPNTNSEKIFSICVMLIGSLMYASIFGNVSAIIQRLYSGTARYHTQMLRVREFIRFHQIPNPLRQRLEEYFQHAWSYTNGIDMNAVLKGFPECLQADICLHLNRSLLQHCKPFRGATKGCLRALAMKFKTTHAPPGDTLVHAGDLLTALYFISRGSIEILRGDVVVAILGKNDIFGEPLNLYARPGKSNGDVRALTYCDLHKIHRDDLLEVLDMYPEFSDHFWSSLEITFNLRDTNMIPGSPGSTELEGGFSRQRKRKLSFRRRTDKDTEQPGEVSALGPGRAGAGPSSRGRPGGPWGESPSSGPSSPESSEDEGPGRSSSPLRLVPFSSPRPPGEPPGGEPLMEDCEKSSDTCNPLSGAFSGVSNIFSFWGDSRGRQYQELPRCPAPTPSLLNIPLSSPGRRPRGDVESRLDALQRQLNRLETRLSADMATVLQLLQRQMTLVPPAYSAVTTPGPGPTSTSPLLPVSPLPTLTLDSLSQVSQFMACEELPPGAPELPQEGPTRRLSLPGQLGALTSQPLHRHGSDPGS

Structure (SMILES): N#Cc1c(-c2cnc(N)nc2C(F)(F)F)nc(N2CCOCC2)nc1N1CCOCC1 [Compound 17p]
- IC50 [1]: 1420 ± 184 nM
- IC50 [2]: 15.4 ± 1.9 nM
- IC50 [3]: 390 ± 30 nM
- inhibition of hERG potassium currents [4]: no obvious inhibition
- IC50 [5]: 4720 ± 370 nM
- Number of bacterial colony revertant mutations (mean ± SD) TA100 ([6]; 3 μg/dish): 88 ± 7
- Number of bacterial colony revertant mutations (mean ± SD) TA100 ([6]; 10 μg/dish): 92 ± 3
- Number of bacterial colony revertant mutations (mean ± SD) TA100 ([6]; 30 μg/dish): 86 ± 4
- Number of bacterial colony revertant mutations (mean ± SD) TA100 ([6]; 100 μg/dish): 91 ± 6
- Number of bacterial colony revertant mutations (mean ± SD) TA100 ([6]; 300 μg/dish): 90 ± 3
- Number of bacterial colony revertant mutations (mean ± SD) TA100 ([6]; 1,000 μg/dish): 91 ± 1
- Number of bacterial colony revertant mutations (mean ± SD) TA100 ([6]; 5,000 μg/dish): 87 ± 1
- mutagenic effect on TA100 ([6]; in words): no mutagenic effect
- Number of bacterial colony revertant mutations (mean ± SD) TA98 ([7]; 3 μg/dish): 38 ± 7
- Number of bacterial colony revertant mutations (mean ± SD) TA98 ([7]; 10 μg/dish): 41 ± 4
- Number of bacterial colony revertant mutations (mean ± SD) TA98 ([7]; 30 μg/dish): 37 ± 11
- Number of bacterial colony revertant mutations (mean ± SD) TA98 ([7]; 100 μg/dish): 43 ± 4
- Number of bacterial colony revertant mutations (mean ± SD) TA98 ([7]; 300 μg/dish): 29 ± 4
- Number of bacterial colony revertant mutations (mean ± SD) TA98 ([7]; 1,000 μg/dish): 44 ± 5
- Number of bacterial colony revertant mutations (mean ± SD) TA98 ([7]; 5,000 μg/dish): 40 ± 4
- mutagenic effect on TA98 ([7]; in words): no mutagenic effect
- IC50 [8]: 4620 ± 520 nM
- IC50 [9]: 8770 ± 1160 nM
- Cl_F_pred ([10]; female SD rats, 2.5 mg/kg iv): 1.5 mL/min/kg
- Cl_F_pred (plasma clearance) ([10]; female SD rats, 10 mg/kg po): 3.3 mL/min/kg
- area under the curve ([10]; female SD rats, 10 mg/kg po): 50,618.9
- Cl_F_pred ([10]; male SD rats, 2.5 mg/kg iv): 16.3 mL/min/kg
- Cl_F_pred ([10]; male SD rats, 10 mg/kg po): 109 mL/min/kg
- AUC(0-t) ([10]; female SD rats, 2.5 mg/kg iv): 27400 ng·h/mL
- Cmax ([10]; female SD rats, 2.5 mg/kg iv): 4280 ng/mL
- half-life ([10]; female SD rats, 2.5 mg/kg iv): 2.79 h
- AUC(0-t) ([10]; female SD rats, 10 mg/kg po): 50600 ng·h/mL
- Cmax ([10]; female SD rats, 10 mg/kg po): 4860 ng/mL
- Tmax ([10]; female SD rats, 10 mg/kg po): 3.33 h
- half-life ([10]; female SD rats, 10 mg/kg po): 2.03 h
- bioavailability ([10]; female SD rats, 10 mg/kg po): 46.2%
- AUC(0-t) ([10]; male SD rats, 2.5 mg/kg iv): 2690 ng·h/mL
- Cmax ([10]; male SD rats, 2.5 mg/kg iv): 3120 ng/mL
- half-life ([10]; male SD rats, 2.5 mg/kg iv): 0.68 h
- AUC(0-t) ([10]; male SD rats, 10 mg/kg po): 1860 ng·h/mL
- Cmax ([10]; male SD rats, 10 mg/kg po): 538 ng/mL
- Tmax ([10]; male SD rats, 10 mg/kg po): 0.67 h
- half-life ([10]; male SD rats, 10 mg/kg po): 3.19 h
- bioavailability ([10]; male SD rats, 10 mg/kg po): 17.3%
- IC50 [11]: 8470 ± 770 nM
- IC50 [12]: 1590 ± 80 nM
- IC50 [13]: 286 ± 39.6 nM
- microsomal CLint ([14]; read-out: CL liver microsomes): 10.8 µL/min/mg
- half-life [14, 20]: 2.13 h
- IC50 [15]: 125 ± 10.1 nM
- cytotoxicity ED50 (TUNEL, logistic regression) [16]: 5.345 µM
- IC50 ([17]; Figure 5 activity bins, read-out: IC50 range in SAR figure (PI3Kα)): 30 to 300 nM
- IC50 ([17]; Table 4, read-out: IC50 PI3Kα (isoform selectivity study)): 30.3 ± 3.5 nM
- IC50 ([17]; mean of three independent experiments, read-out: IC50 against PI3Kα): 32.4 ± 4.1 nM
- microsomal CLint ([18]; read-out: CL liver microsomes): 36 µL/min/mg
- half-life [18, 20]: 0.642 h
- IC50 [19]: 850 ± 110 nM

— article PMC11533140 (Frontiers in Pharmacology, 2024)
